According to article PMC9440176, “Novel benzylidene benzofuranone analogues as potential anticancer agents: design, synthesis and in vitro evaluation based on CDK2 inhibition assays” (3 Biotech, 2022):

Tests used:
[1] = test system: MCF-7; assay: MTT cytotoxicity assay on MCF-7; type: cell-based; settings: 24 h, read-out: Inhibition of cell proliferation, IC50, MCF-7
Description: (§1) The monolayer cell culture was trypsinized and the cell count was adjusted to 5.0 × 10^5 cells/ml using respective media containing 10% FBS. To each well of the 96-well microtiter plate, 100 µL of the diluted cell suspension (50,000cells/well) was added. After 24 h, when a partial monolayer was formed, the supernatant was flicked off, the monolayer was then washed once again with the medium and 100 µL of different test concentrations of test drugs were added on to the partial monolayer in microtiter plates. The plates were then incubated at 37 °C for 24 h in 5% CO2 atmosphere. After incubation, the test solutions in the wells were discarded and 100 µL of MTT (5 mg/10 ml of MTT in PBS) was added to each well. The plates were then incubated for 4 h at 37 °C in 5% CO2 atmosphere. The supernatant was then removed and 100 µL of DMSO was added and the plates were gently shaken to solubilize the formed formazan. The absorbance was measured using a microtiter plate reader at a wavelength of 590 nm. The percentage growth inhibition was thus calculated using the following formula and the concentration of the test drug required to inhibit the cell growth by 50% (IC50) values is generated from the dose–response curves for each one of the cell lines (Meerloo et al. [2011]).
(§2) The test compounds were screened for their in vitro cytotoxicity by MTT assay against two cancer cell lines, namely MCF-7, HCT-116 and normal epithelial kidney cells (Vero). Doxorubicin was used as a reference standard.

[2] = test system: normal epithelial kidney cells (Vero); assay: MTT cytotoxicity assay on Vero; type: cell-based; settings: 24 h, read-out: Inhibition of cell proliferation, IC50, Vero
Description: as §1, §2

[3] = test system: HCT 116; assay: MTT cytotoxicity assay on HCT 116; type: cell-based, Human; settings: 24 h, read-out: Inhibition of cell proliferation, IC50, HCT 116
Description: as §1, §2

[4] = DPPH. free radical scavenging assay
Description: DPPH. assay was performed using 96-well plate by serial dilution method. The dilution of methanolic stock solution of the test compounds and standard anti-oxidants was carried out to obtain concentration in the range of 3.9–1000 µM. Quercetin and ascorbic acid were used as standards. To a 100 μL of this solution, 100 μL of 200 µM DPPH^. in methanolic solution was added. The experiment was done in triplicate and the plate was then incubated for 30 min in the dark and later the absorbance was measured at 517 nm using Elisa reader. The percentage DPPH^. Scavenging was calculated using the formula, (Control Absorbance–Test Absorbance)*100/(Control Absorbance). The anti-oxidant activity of the test compounds was expressed in terms of concentration required for 50 percentage inhibition (IC50) (Collins [2005]).

[5] = ABTS.+ radical scavenging assay
Description: The assay was performed in a 96-well plate by serial dilution method. A 2 mM ABTS^.+ working solution was prepared in a phosphate buffer (Zheleva-Dimitrova et al [2010]).To this, 200 μL of aqueous potassium per sulfate (70 mM) solution was added and the solution was incubated for 24 h in the dark at room temperature to develop a blue-green color. To 30 μL of ABTS^.+ working solution, 50 μL of different concentrations (3.9–1000 μM) of the test sample solution and 170 μL of phosphate buffer (pH-7.4) were added in a well. The plate was then incubated in the dark at room temperature for 10 min. Then absorbance was measured at 690 nm using Elisa reader. Quercetin and ascorbic acid were used as standards. The percentage scavenging of ABTS^.+ was calculated using the formula, (Control Absorbance–Test Absorbance)*100/(Control Absorbance) and the anti-oxidant activity was expressed in terms of IC50 value.

[6] = molecular target: CDK2/Cyclin A (Homo sapiens, UniProt P24941); assay: CDK2/cyclin A inhibitory assay, Z'-LYTE FRET kinase assay; type: biochemical; settings: concentration of 100 micro molar; 1000 ng/ml kinase, 1000 µM ATP
Description: Z’-LYTE® technology involves homogeneous assay design based on FRET and is a universal platform for both screening as well as profiling protein kinases. The assay uses a peptide substrate labeled with two different fluorophores, coumarin donor and fluorescein acceptor on each end. These two fluorophores make up a FRET pair, which allows the transfer of energy when both are present on the same molecule. The initial kinase reaction transfers the ϒ-phosphate of ATP to a tyrosine or serine/threonine residue on the substrate. In a secondary reaction, referred to as the development reaction, a site-specific protease recognizes and cleaves only non-phosphorylated peptide, while phosphorylated substrate remains uncleaved. […] Upon excitation of Coumarin at 400 nm, the FRET signal is measured as a ratio between the Coumarin donor emission at 445–460 nm and the fluorescein acceptor emission at 520–535 nm(Lebakken et al. [2007]).
Initial ten-fold and two-fold dilutions of Kinase and ATP concentrations were used to choose the optimal Kinase and ATP concentration based on the % Phosphorylation.
The assay was carried out according to the kit instructions (384 well format). Briefly, 5X kinase buffer [250 mM HEPES (pH 7.5), 50 mM MgCl2, 5 mM EGTA, 0.05% BRIJ-35] was diluted to 1X using distilled water. The phosphor peptide positive control (Z’-LYTE® Tyr 4 phospho-peptide) and the non-phosphorylated negative control (Z’-LYTE® Tyr 4 peptide) were then diluted to 1:500 with 1× kinase buffer to 2 μM. […] Working development solution was then made by diluting 12 μL of the provided stock solution with 388 μL of the provided development buffer. Aliquots (20 μL) of each peptide mixture were then added to the wells of a Corning 3914 solid white microplate in replicates of 8. The development reaction was initiated by the addition of 10 μL of working development-solution to all the wells. Further, the plates were allowed to incubate at room temperature for 60 min. Reactions were then stopped by the addition of 10 μL of stop solution (Jia et al. [2008]).
Reactions were quantitated using a Tecan Robotic Microplate Reader. Reader control, blank subtraction, ratio metric calculations and finally graph plotting were carried out using Gen5™ Data Analysis Software.
The CDK2/Cyclin A assay was carried out as per the manufacturer’s instruction using suitable controls and standard.
The inhibitory assay was carried out using the stock of 10 mM in DMSO. Samples were further serially diluted to obtain concentrations of 100 μM. The concentrations were chosen based on the IC50 values obtained in the MTT assay. A total of 23 analogues were selected for the assay based on their antiproliferative activity. Further, selected compounds were screened and tested against the target CDK2/Cyclin A, and their % phosphorylation and % inhibition were recorded.

Row | SMILES | IC50 [1] | IC50 [2] | IC50 [3] | IC50 [4] | IC50 [5] | % inhibition on CDK2/cyclin A [6]
1 | COc1cc(OC)c(C2=CCN(C(C)C)CC2)c2c1C(=O)/C(=C/c1ccccc1C)O2 [NISOA3] | 70.4 µM | > 200 µM | 89.5 µM | 284 ± 12.3 µM | 187 ± 8.03 µM | 43.654%
2 | CCN1CC=C(c2c(OC)cc(OC)c3c2O/C(=C\c2ccc4ccccc4c2)C3=O)CC1 [NEA1] | 57.9 µM | – | 68.6 µM | 141 ± 13.9 µM | 120.9 ± 1.08 µM | 32.676%
3 | CCN1CC=C(c2c(OC)cc(OC)c3c2O/C(=C\c2ccc(Br)cc2)C3=O)CC1 [NEA4] | 82.7 µM | 188 µM | 93.6 µM | 94.7 ± 4.9 µM | 71.67 ± 0.34 µM | 27.236%
4 | COc1cc(OC)c(C2=CCN(C(C)C)CC2)c2c1C(=O)/C(=C/c1ccc(Cl)cc1)O2 [NISOA6] | 43.9 µM | 179 µM | 41.8 µM | 183 ± 11.9 µM | 146 ± 14.8 µM | 36.546%
5 | CCCN1CC=C(c2c(OC)cc(OC)c3c2O/C(=C\c2ccc(OC)c(OC)c2)C3=O)CC1 [NPA5] | 68.5 µM | 99.9 µM | 74.3 µM | 89.7 ± 9.65 µM | 76.1 ± 1.75 µM | 12.547%
6 | CCCN1CC=C(c2c(OC)cc(OC)c3c2O/C(=C\c2ccccc2Br)C3=O)CC1 [NPA3] | 53.9 µM | – | 67.9 µM | 159 ± 13.9 µM | 123 ± 4.55 µM | 17.045%
7 | CCCN1CC=C(c2c(OC)cc(OC)c3c2O/C(=C\c2ccc(Cl)cc2)C3=O)CC1 [NPA4] | 42.1 µM | 102 µM | 44 µM | 162.34 ± 0.06 µM | 134 ± 3.71 µM | 14.753%
8 | COc1cc(OC)c(C2=CCN(C(C)C)CC2)c2c1C(=O)/C(=C/c1ccc3ccccc3c1)O2 [NISOA1] | 46.8 µM | 172 µM | 63.2 µM | 128 ± 17.9 µM | 112 ± 5.45 µM | 38.987%
9 | COc1ccc(/C=C2\Oc3c(c(OC)cc(OC)c3C3=CCN(C)CC3)C2=O)cc1 [NMA5] | 155 µM | > 200 µM | 139 µM | 98.2 ± 1.99 µM | 87 ± 0.18 µM | 25.098%
10 | COc1ccc(/C=C2\Oc3c(c(OC)cc(OC)c3C3=CCN(C(C)C)CC3)C2=O)cc1 [NISOA5] | 39.6 µM | 167 µM | 55.4 µM | 129 ± 6.78 µM | 109 ± 9.23 µM | 39.054%
11 | COc1cc(OC)c(C2=CCN(C)CC2)c2c1C(=O)/C(=C/c1ccc(N(C)C)cc1)O2 [NMA4] | 63.8 µM | > 200 µM | 89.5 µM | 154 ± 12.7 µM | 137 ± 6.23 µM | 29.543%
